# Source: patent US8163737B2 (Vertex Pharmaceuticals Incorporated, priority 2006, dated 2012)
# Columns and labels:
# [1] = molecular target: T1, CGRP receptor (SK-N-MC membrane) (Homo sapiens, UniProt O60894+Q16602); assay: I125-CGRP binding displacement assay on purified SK-N-MC membrane
# T1 construct: Purified SK-N-MC membrane was purchased from Perkin Elmer; purchased Perkin Elmer; host or cells: SK-N-MC membrane
# Procedure: Purified SK-N-MC membrane was purchased from Perkin Elmer. The membrane was thawed quickly and placed on ice. The compounds were diluted with CGRP binding solution (25 mM Tris-HCl, pH7.4, 5 mM MgCl2, 0.1% BSA and 0.05% Tween). The membrane was diluted 1:20 with the binding solution and homogenized with Tissue Matster-50 Homogenizer (Omni International) for 30 sec. The homogenized membrane was added to compounds in the binding solution. […] After 2 hour incubation at room temperature, the reaction was stopped by rapid filtration through 0.5% PEI treated GF/C filter plate (Perkin Elmer) and the filter plate was washed with ice-cold washing solution (50 mM Tris HCl, pH7.4, 5 mM MgCl2 and 0.1% BSA) using cell harvestor (Tomtec). The radioactivity of the filter plates were read on Topcount (Packard). The nonspecific binding was determined in the control reaction where 1 uM unlabelled CGRP was preincubated with the membrane prior to I125-CGRP addition. The total binding was determined in the control reaction of the membrane and I125-CGRP in the absence of compound. The percent displacement of I125-CGRP with compounds was calculated using nonspecific and total binding controls. The curve fitting was carried out using MOD3.
# endogenous CGRP receptor = endogenous CGRP receptor (Homo sapiens, UniProt O60894+Q16602); assay: CGRP functional antagonism using SK-N-MC-BLA (4C10), β-lactamase transcriptional reporter assay; assay type: cell-based; settings: SK-N-MC (4C10) cells, inhibition of β-lactamase expression in the presence of 200 pM CGRP
# Sequence of endogenous CGRP receptor (Q16602 23-461): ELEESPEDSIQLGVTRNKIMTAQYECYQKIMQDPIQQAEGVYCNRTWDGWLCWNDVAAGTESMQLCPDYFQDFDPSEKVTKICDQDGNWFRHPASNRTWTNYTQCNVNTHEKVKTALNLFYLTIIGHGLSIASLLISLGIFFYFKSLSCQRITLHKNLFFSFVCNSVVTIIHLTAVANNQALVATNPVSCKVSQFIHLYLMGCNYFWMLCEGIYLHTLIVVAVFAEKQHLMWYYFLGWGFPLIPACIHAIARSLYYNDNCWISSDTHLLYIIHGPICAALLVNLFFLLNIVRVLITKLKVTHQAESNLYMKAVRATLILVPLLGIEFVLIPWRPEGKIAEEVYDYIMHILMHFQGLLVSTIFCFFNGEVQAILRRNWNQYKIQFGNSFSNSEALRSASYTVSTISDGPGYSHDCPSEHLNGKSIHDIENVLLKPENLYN
# Sequence of endogenous CGRP receptor (O60894 27-148): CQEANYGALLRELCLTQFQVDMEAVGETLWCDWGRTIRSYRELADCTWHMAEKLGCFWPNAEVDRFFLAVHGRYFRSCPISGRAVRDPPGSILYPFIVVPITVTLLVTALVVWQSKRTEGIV
# T1 sequence (Q16602 23-461): as the sequence (Q16602 23-461) above
# T1 sequence (O60894 27-148): as the sequence (O60894 27-148) above
Compound,Ki [1] [nM],IC50 (endogenous CGRP receptor) [nM]
CC(C)(C)CCN1C(=O)[C@H](CC(=O)N2CCC(N3CC(=O)NC3=O)CC2)S[C@H]1c1cccc(F)c1N1CCN(C(C)(C)C)CC1 [Compound 447],< 1000,< 1000
CC(C)N1CCN(c2c(F)cccc2[C@@H]2S[C@@](C)(CC(=O)N3CCC(N4CCc5ccccc5NC4=O)CC3)C(=O)N2CCC(C)(C)C)CC1 [Compound 431],< 1000,< 1000
CC(C)(C)CCN1C(=O)[C@H](CC(=O)N2CCC(N3CCc4ccccc4NC3=O)CC2)SC1c1cccc(F)c1N1CC[C@H](O)C1 (stereo partly shown) [Compound 486],< 1000,< 1000
CN(c1ccccc1C1SC(CC(=O)N2CCC(N3CCc4ccccc4NC3=O)CC2)C(=O)N1CCC(C)(C)C)[C@H]1CCN(Cc2ccccc2)C1 (stereo partly shown) [Compound 403],< 1000,1000 to 5000
CC(C)CCN1C(=O)C(CC(=O)N2CCC3(CC2)CC(=O)c2ccccc2O3)SC1c1ccccc1N1CCN(C)CC1 (stereo not shown) [Compound 331],< 1000,< 1000
CC(C)CCN1C(=O)C(CC(=O)N2CCC(N3Cc4ccccc4NC3=O)CC2)S(=O)(=O)C1c1ccc(F)cc1F (stereo not shown) [Compound 203],< 1000,1000 to 5000
CN(c1ccccc1C1SC(CC(=O)N2CCC(n3c(=O)[nH]c4ncccc43)CC2)C(=O)N1CCC(C)(C)C)[C@@H]1CCN(Cc2ccccc2)C1 (stereo partly shown) [Compound 402],< 1000,< 1000
CC(C)(C)N1CCN(c2c(F)cccc2C2S[C@@H](CC(=O)N3CCC(n4c(=O)[nH]c5ncccc54)CC3)C(=O)N2CC2CCCCC2)CC1 (stereo partly shown) [Compound 516],< 1000,< 1000
CC(C)(C)CCN1C(=O)C(CC(=O)N2CCC(N3CCc4ccccc4NC3=O)CC2)SC1c1ccccc1-n1cccn1 (stereo not shown) [Compound 88],< 1000,< 1000
COc1ccc(C(=O)C2CCN(C(=O)C[C@@H]3SC(c4cccc(F)c4N4CCN(C(C)(C)C)CC4)N(CCC(C)(C)C)C3=O)CC2)cc1 (stereo partly shown) [Compound 461],< 1000,< 1000
Cc1cc(C2SC(CC(=O)N3CCC(N4CCc5ccccc5NC4=O)CC3)C(=O)N2CC2CCCCC2)cc2cn[nH]c12 (stereo not shown) [Compound 20],< 1000,< 1000
CC(C)CCN1C(=O)C(CC(=O)N2CCC(N3Cc4ccccc4NC3=O)CC2)SC1c1ccc(F)c(F)c1 (stereo not shown) [Compound 202],< 1000,< 1000
CC(C)OCCN1C(=O)[C@H](CC(=O)N2CCC(n3c(=O)[nH]c4ncccc43)CC2)SC1c1cccc(F)c1N1CCN(C(C)(C)C)CC1 (stereo partly shown) [Compound 531],< 1000,< 1000
Cc1ccccc1C1SC(CC(=O)N2CCC(N3CCc4ccccc4NC3=O)CC2)C(=O)N1CCC(C)C (stereo not shown) [Compound 171],< 1000,< 1000
CC(C)CCN1C(=O)C(CC(=O)N2CCC(n3cc(-c4ccccc4)[nH]c3=O)CC2)SC12CCCCC2 (stereo not shown) [Compound 195],> 5000,1000 to 5000
CN1CCN(c2ccc(F)cc2C2SC(CC(=O)N3CCC(N4Cc5ccccc5NC4=O)CC3)C(=O)N2CCC(C)(C)C)CC1 (stereo not shown) [Compound 351],< 1000,1000 to 5000
CC(C)OCCN1C(=O)[C@H](CC(=O)N2CCC(N3CCc4ccccc4NC3=O)CC2)SC1c1cccc(F)c1N1CCN(C(C)(C)C)CC1 (stereo partly shown) [Compound 529],< 1000,< 1000
CN1CCN(c2ccccc2C2SC(CC(=O)N3CC(N4Cc5ccccc5NC4=O)C3)C(=O)N2CCC(C)(C)C)CC1 (stereo not shown) [Compound 477],< 1000,> 5000
CC(C)CCN1C(=O)C(CC(=O)N2CCC(N3Cc4ccccc4NC3=O)CC2)SC1c1cccc(Cl)c1 (stereo not shown) [Compound 33],< 1000,< 1000
CC(C)CCN1C(=O)C(CC(=O)N2CCC(N3Cc4ccccc4NC3=O)CC2)SC1c1c(F)cccc1C(F)(F)F (stereo not shown) [Compound 256],< 1000,< 1000

Compound,Ki [1] [nM],IC50 (endogenous CGRP receptor) [nM]
CC(C)(C)CCN1C(=O)[C@H](CC(=O)N2CCC(n3c(=O)[nH]c4ncccc43)CC2)S[C@@H]1c1cccc(F)c1C1CCNCC1 [Compound 554],< 1000,< 1000
CN(c1ccccc1C1SC(CC(=O)N2CCC(N3CCc4ccccc4NC3=O)CC2)C(=O)N1CCC(C)(C)C)[C@H]1CCN(Cc2ccccc2)C1 (stereo partly shown) [Compound 409],< 1000,> 5000
CC(C)(C)N1CCN(c2c(F)cccc2[C@H]2S[C@@H](CC(=O)N3CCC(N4CCc5ccccc5NC4=O)CC3)C(=O)N2Cc2ccccc2)CC1 [Compound 547],< 1000,< 1000
CC(C)CCN1C(=O)C(CC(=O)N2CCC(N3Cc4ccccc4NC3=O)CC2)SC1C1CCCC1 (stereo not shown) [Compound 188],< 1000,< 1000
O=C(CC1SC(c2ccccc2)N(CCc2ccccc2)C1=O)N1CCC(N2Cc3ccccc3NC2=O)CC1 (stereo not shown) [Compound 58],< 1000,< 1000
CC(C)CCN1C(=O)C(CC(=O)N2CCC(N3Cc4ccccc4NC3=O)CC2)SC1c1c(Cl)cccc1Cl (stereo not shown) [Compound 76],< 1000,< 1000
Cc1cccc(C2SC(CC(=O)N3CCC(N4Cc5ccccc5NC4=O)CC3)C(=O)N2CCC(C)C)c1 (stereo not shown) [Compound 41],< 1000,< 1000
CC(C)CCN1C(=O)C(CC(=O)N2CCC(N3CCc4ccccc4NC3=O)CC2)SC1c1ccccc1N1CCOCC1 (stereo not shown) [Compound 10],< 1000,< 1000
CC(C)N1CCN(c2c(F)cccc2C2SC(CC(=O)N3CCC(N4CCc5ccccc5NC4=O)CC3)C(=O)N2CCC(C)(C)C)CC1 (stereo not shown) [Compound 340],> 5000,> 5000
CC(C)(C)CCN1C(=O)C(CC(=O)N2CCC(N3Cc4ccccc4NC3=O)CC2)SC1c1ccccc1-n1cccn1 (stereo not shown) [Compound 115],< 1000,< 1000
CC(C)(C)CCN1C(=O)[C@H](CC(=O)N2CCC(N3CCc4ccccc4NC3=O)CC2)SC1c1cccc(F)c1C1CCN(C2CCC2)CC1 (stereo partly shown) [Compound 558],< 1000,–
CN(C)[C@H]1CCN(c2ccccc2C2SC(CC(=O)N3CCC(n4c(=O)[nH]c5ncccc54)CC3)C(=O)N2CCC(C)(C)C)C1 (stereo partly shown) [Compound 406],< 1000,–
CC(C)(C)CCN1C(=O)[C@H](CC(=O)N2CCC(N3CCc4ccccc4NC3=O)CC2)SC1c1cccc(F)c1N1CCC(c2ccncc2)CC1 (stereo partly shown) [Compound 557],< 1000,–
CC(C)CCN1C(=O)C(CC(=O)N2CCC(n3c(=O)[nH]c4ccccc43)CC2)S[C@H]1c1ccccc1N1CCC(O)CC1 (stereo partly shown) [Compound 304],< 1000,–
CC(C)CCN1C(=O)C(CC(=O)N2CCC(N3Cc4ccccc4NC3=O)CC2)SC1C(C)c1ccccc1 (stereo not shown) [Compound 101],–,> 5000
Cc1cccc(C)c1C1SC(CC(=O)N2CCC(N3CCc4ccccc4NC3=O)CC2)C(=O)N1CCC(C)C (stereo not shown) [Compound 123],–,< 1000
CC(C)N1CCN(c2ncccc2C2S[C@@H](CC(=O)N3CCC(n4c(=O)[nH]c5ncccc54)CC3)C(=O)N2CCC(C)(C)C)CC1 (stereo partly shown) [Compound 443],–,< 1000
CC(C)(C)CCN1C(=O)[C@H](CC(=O)N2CCC(O)(c3ccc(F)cc3)CC2)SC1c1cccc(F)c1N1CCN(C(C)(C)C)CC1 (stereo partly shown) [Compound 454],–,> 5000
CC(C)CCN1C(=O)C(CC(=O)N2CCC3(CC2)C(=O)N(C)c2ccccc23)SC1c1ccccc1 (stereo not shown) [Compound 29],–,> 5000
CC(C)(C)CCN1C(=O)[C@H](CC(=O)N2CCC(N3CCc4ccccc4NC3=O)CC2)SC1c1cccc(F)c1N1CCC(N2CCCCC2)CC1 (stereo partly shown) [Compound 439],–,< 1000
